Here are results for 26 compounds from US9242996B2 (Novartis AG, priority 2013, dated 2016).

Molecules are shown by their SMILES.

activated ERK2, sequence (P28482 whole entry): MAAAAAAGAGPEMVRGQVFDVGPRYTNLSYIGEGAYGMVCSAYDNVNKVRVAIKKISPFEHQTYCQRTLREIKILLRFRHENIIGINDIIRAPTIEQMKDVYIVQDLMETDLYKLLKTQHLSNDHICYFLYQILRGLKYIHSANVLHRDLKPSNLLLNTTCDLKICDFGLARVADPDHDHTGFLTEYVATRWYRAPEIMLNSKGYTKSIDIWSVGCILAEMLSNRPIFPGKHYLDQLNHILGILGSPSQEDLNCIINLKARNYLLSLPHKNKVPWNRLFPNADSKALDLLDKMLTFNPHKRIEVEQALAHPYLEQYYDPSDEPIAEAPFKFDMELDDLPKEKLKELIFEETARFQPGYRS

This experiment deals with activated ERK2 (Homo sapiens (Human), UniProt P28482). Kind of experiment: Activated ERK2 (20 pM) Kinase Assay (AlphaScreen, ERKtide phosphorylation). In kind it is biochemical. The conditions noted are these: 0.02 nM ERK2, 400 nM ERKtide peptide, 35 μM ATP, 30 min preincubation. As to the method: Activated ERK2 (20 pM) Kinase Assay:
The assay was carried out in 20 mM HEPES [pH 7.5], 5 mM MgCl2, 1 mM DTT, 0.01% Tween-20, 0.05% BSA using 0.02 nM ERK2, 400 nM ERKtide peptide and 35 μM ATP (all concentrations are final in the reaction) in a total volume of 10.25 μL. […] Compound dilution series were prepared in 100% DMSO. ERK2 was preincubated with compounds for 30 minutes at ambient temperature. Reaction was initiated by addition of a substrate cocktail of ERKtide peptide and ATP and was allowed to proceed for 4 hours at ambient temperature. Reaction was terminated by addition of 10 μL of a 2× stop buffer consisting of 100 mM Tris-Cl [pH 7.5], 25 mM EDTA, 0.01% Tween 20, 20 μg/mL of AlphaScreen Protein A Acceptor Beads, 20 μg/mL of Streptavidin Donor Beads (PerkinElmer, Waltham, Mass.), and 1:1000 dilution phospho-EGF Receptor (Thr669) antibody (Cat #8808, Cell Signaling Technology, Danvers, Mass.). Terminated reactions were read, after overnight incubation in the dark, on an EnVision Multilabel Plate Reader (PerkinElmer, Waltham, Mass.), with excitation and emission wavelengths set to 680 nm and 570 nm, respectively. IC50 values were determined using a four-parameter fit.
A general note: Alpha assays give light when donor and acceptor beads are brought close together.
In turn, `Cc1c(-c2cnc(N)c(-c3ccc(C(=O)N[C@H](CO)c4cccc(CF)c4)c(F)c3)c2)cnn1C` [Example 256, (S)-4-(2-amino-5-(1,5-dimethyl-1H-pyrazol-4-yl)pyridin-3-yl)-2-fluoro-N-(1-(3-(fluoromethyl)phenyl)-2-hydroxyethyl) benzamide] returned an IC50 of 0.0258 nM.
For `Nc1ncc(C2CCOCC2)nc1-c1ccc(C(=O)N[C@H](CO)c2cccc(CF)c2)c(F)c1` [Example 257, (S)-4-(3-amino-6-(tetrahydro-2H-pyran-4-yl)pyrazin-2-yl)-2-fluoro-N-(1-(3-(fluoromethyl)phenyl)-2-hydroxyethyl) benzamide] the value was 0.0197 nM.
For `Nc1ncc(C2CCOCC2)nc1-c1ccc(C(=O)N[C@H](CO)c2cccc(Br)c2)c(F)c1` [Example 258, (S)-4-(3-amino-6-(tetrahydro-2H-pyran-4-yl)pyrazin-2-yl)-N-(1-(3-bromophenyl)-2-hydroxyethyl)-2-fluorobenzamide] the value was 0.0343 nM; for `Nc1ncc(C2CCOCC2)nc1-c1ccc(C(=O)N[C@H](CO)c2cc(F)cc(Br)c2)c(F)c1` [Example 259, (S)-4-(3-amino-6-(tetrahydro-2H-pyran-4-yl)pyrazin-2-yl)-N-(1-(3-bromo-5-fluorophenyl)-2-hydroxyethyl)-2-fluorobenzamide], 0.0127 nM; for `Cc1c(-c2cnc(N)c(-c3ccc(C(=O)N[C@H](CO)c4cccc(CF)c4)c(F)c3)c2)cnn1C(F)F` [Example 260, (S)-4-(2-amino-5-(1-(difluoromethyl)-5-methyl-1H-pyrazol-4-yl)pyridin-3-yl)-2-fluoro-N-(1-(3-(fluoromethyl)phenyl)-2-hydroxyethyl) benzamide], 0.0208 nM.
Next, `Cc1nn(C(F)F)cc1-c1cnc(N)c(-c2ccc(C(=O)N[C@H](CO)c3cccc(CF)c3)c(F)c2)c1` [Example 261, (S)-4-(2-amino-5-(1-(difluoromethyl)-3-methyl-1H-pyrazol-4-yl)pyridin-3-yl)-2-fluoro-N-(1-(3-(fluoromethyl)phenyl)-2-hydroxyethyl) benzamide]: 0.0168 nM; `Cc1c(-c2cnc(N)c(-c3ccc(C(=O)N[C@H](CO)c4cc(F)cc(CF)c4)c(F)c3)c2)cnn1C(F)F` [Example 262, (S)-4-(2-amino-5-(1-(difluoromethyl)-5-methyl-1H-pyrazol-4-yl)pyridin-3-yl)-2-fluoro-N-(1-(3-fluoro-5-(fluoromethyl)phenyl)-2-hydroxyethyl) benzamide]: 0.014 nM; `Cc1c(-c2cnc(N)c(-c3ccc(C(=O)N[C@H](CO)c4cccc(Cl)c4)c(F)c3)c2)cnn1C(F)F` [Example 264, (S)-4-(2-amino-5-(1-(difluoromethyl)-5-methyl-1H-pyrazol-4-yl)pyridin-3-yl)-N-(1-(3-chlorophenyl)-2-hydroxyethyl)-2-fluorobenzamide]: 0.0431 nM.
The compound `Cn1nncc1-c1cnc(N)c(-c2ccc(C(=O)N[C@H](CO)c3cc(F)cc(Br)c3)c(F)c2)c1` [Example 265] returned an IC50 of 0.031 nM.
Next, `Cn1nncc1-c1cnc(N)c(-c2ccc(C(=O)N[C@H](CO)c3cccc(Br)c3)c(F)c2)c1` [Example 266, (S)-4-(2-amino-5-(1-methyl-1H-1,2,3-triazol-5-yl)pyridin-3-yl)-N-(1-(3-bromophenyl)-2-hydroxyethyl)-2-fluorobenzamide]: 0.0487 nM.
Next, `Cn1nncc1-c1cnc(N)c(-c2ccc(C(=O)N[C@H](CO)c3cc(F)cc(I)c3)c(F)c2)c1` [Example 267, (S)-4-(2-amino-5-(1-methyl-1H-1,2,3-triazol-5-yl)pyridin-3-yl)-2-fluoro-N-(1-(3-fluoro-5-iodophenyl)-2-hydroxyethyl) benzamide]: 0.0158 nM; `Cc1nn(C)cc1-c1cnc(N)c(-c2ccc(C(=O)N[C@H](CO)c3cc(F)cc(C(F)F)c3)c(F)c2)c1` [Example 270, (S)-4-(2-amino-5-(1,3-dimethyl-1H-pyrazol-4-yl)pyridin-3-yl)-N-(1-(3-(difluoromethyl)-5-fluorophenyl)-2-hydroxyethyl)-2-fluorobenzamide]: 0.0467 nM; `Cc1c(-c2cnc(N)c(-c3ccc(C(=O)N[C@H](CO)c4cc(F)cc(C(F)F)c4)c(F)c3)c2)cnn1C` [Example 271, (S)-4-(2-amino-5-(1,5-dimethyl-1H-pyrazol-4-yl)pyridin-3-yl)-N-(1-(3-(difluoromethyl)-5-fluorophenyl)-2-hydroxyethyl)-2-fluorobenzamide]: 0.0308 nM.
For `Cc1c(-c2cnc(N)c(-c3ccc(C(=O)N[C@H](CO)c4cc(F)cc(C(F)F)c4)c(F)c3)c2)cnn1C(F)F` [Example 273, (S)-4-(2-amino-5-(1-(difluoromethyl)-5-methyl-1H-pyrazol-4-yl)pyridin-3-yl)-N-(1-(3-(difluoromethyl)-5-fluorophenyl)-2-hydroxyethyl)-2-fluorobenzamide] the value was 0.0482 nM; for `Cc1nn(C(F)F)cc1-c1cnc(N)c(-c2ccc(C(=O)N[C@H](CO)c3cc(F)cc(C(F)F)c3)c(F)c2)c1` [Example 274, (S)-4-(2-amino-5-(1-(difluoromethyl)-3-methyl-1H-pyrazol-4-yl)pyridin-3-yl)-N-(1-(3-(difluoromethyl)-5-fluorophenyl)-2-hydroxyethyl)-2-fluorobenzamide], 0.0312 nM; for `Cc1c(-c2cnc(N)c(-c3ccc(C(=O)N[C@H](CO)c4cccc(C(F)F)c4)c(F)c3)c2)cnn1C(F)F` [Example 275, (S)-4-(2-amino-5-(1-(difluoromethyl)-5-methyl-1H-pyrazol-4-yl)pyridin-3-yl)-N-(1-(3-(difluoromethyl)phenyl)-2-hydroxyethyl)-2-fluorobenzamide], 0.0745 nM.
On to `Cc1c(-c2cnc(N)c(-c3ccc(C(=O)N[C@H](CO)c4cccc(C(F)F)c4)c(F)c3)c2)cnn1C` [Example 276, (S)-4-(2-amino-5-(1,5-dimethyl-1H-pyrazol-4-yl)pyridin-3-yl)-N-(1-(3-(difluoromethyl)phenyl)-2-hydroxyethyl)-2-fluorobenzamide], for which the IC50 was found to be 0.0371 nM.
For `Cc1nn(C)cc1-c1cnc(N)c(-c2ccc(C(=O)N[C@H](CO)c3cccc(C(F)F)c3)c(F)c2)c1` [Example 277, (S)-4-(2-amino-5-(1,3-dimethyl-1H-pyrazol-4-yl)pyridin-3-yl)-N-(1-(3-(difluoromethyl)phenyl)-2-hydroxyethyl)-2-fluorobenzamide] the value was 0.0707 nM; for `Cc1c(-c2cnc(N)c(-c3ccc(C(=O)N[C@H](C)c4cc(F)cc(S(C)(=O)=O)c4)c(F)c3)c2)cnn1C(F)F` [Example 278, (R)-4-(2-amino-5-(1-(difluoromethyl)-5-methyl-1H-pyrazol-4-yl)pyridin-3-yl)-2-fluoro-N-(1-(3-fluoro-5-(methylsulfonyl)phenyl)ethyl) benzamide], 0.146 nM.
Next, `Cn1nncc1-c1cnc(N)c(-c2ccc(C(=O)N[C@H](CO)c3cccc(C(F)F)c3)c(F)c2)c1` [Example 301]: 0.0933 nM; `NC[C@@H](NC(=O)c1ccc(-c2nc([C@@H]3CC[C@@H](O)[C@H](F)C3)cnc2N)cc1F)c1cc(F)cc(I)c1` [Example 315, N-((S)-2-amino-1-(3-fluoro-5-iodophenyl)ethyl)-4-(3-amino-6-((1R,3R,4R)-3-fluoro-4-hydroxy-cyclohexyl)pyrazin-2-yl)-2-fluorobenzamide]: 0.005 nM.
For `Nc1ncc(C2CCOCC2)nc1-c1ccc(C(=O)N[C@@H](C#CC2CC2)CO)c(F)c1` [Example 321, (S)-4-(3-amino-6-(tetrahydro-2H-pyran-4-yl)pyrazin-2-yl)-N-(4-cyclopropyl-1-hydroxybut-3-yn-2-yl)-2-fluorobenzamide] the value was 84.9 nM.
On to `Nc1ncc(C2CCOCC2)nc1-c1ccc(C(=O)N[C@H](CO)c2cc(F)cc(CF)c2)c(F)c1` [Example 329, (S)-4-(3-amino-6-(tetrahydro-2H-pyran-4-yl)pyrazin-2-yl)-2-fluoro-N-(1-(3-fluoro-5-(fluoromethyl)phenyl)-2-hydroxyethyl) benzamide], for which 0.01 nM corresponded to half-maximal inhibition (IC50).
For `Nc1ncc(C2CCOCC2)nc1-c1ccc(C(=O)N[C@H](CO)c2cc(F)cc(Cl)c2)c(F)c1` [Example 330, (S)-4-(3-amino-6-(tetrahydro-2H-pyran-4-yl)pyrazin-2-yl)-N-(1-(3-chloro-5-fluorophenyl)-2-hydroxyethyl)-2-fluorobenzamide] the value was 0.0222 nM.
The compound `C[C@@H](O)[C@@H](NC(=O)c1ccc(-c2nc(C3CCOCC3)cnc2N)cc1F)c1cccc(Cl)c1` [Example 331, 4-(3-amino-6-(tetrahydro-2H-pyran-4-yl)pyrazin-2-yl)-N-((1S,2R)-1-(3-chlorophenyl)-2-hydroxypropyl)-2-fluorobenzamide] yielded a concentration for half-maximal inhibition (IC50) of 0.0645 nM.
For `C[C@@H](O)[C@@H](NC(=O)c1ccc(-c2cc(-c3cnn(C)c3)cnc2N)cc1F)c1cccc(Cl)c1` [Example 332, 4-(2-amino-5-(1-methyl-1H-pyrazol-4-yl)pyridin-3-yl)-N-((1S,2R)-1-(3-chlorophenyl)-2-hydroxypropyl)-2-fluorobenzamide] the value was 0.815 nM.

In general, IC50 refers to the concentration needed to halve the response being measured. A high value points to weaker potency.
